# Patent US20110111044A1, “NANOPARTICLE COMPOSITIONS FOR NUCLEIC ACIDS DELIVERY SYSTEM” (ENZON PHARMACEUTICALS, INC., priority 2008, published 2011)
# Experiments:
# ErbB3 mRNA [1] = experiment: ErbB3 mRNA KD in liver of 15PC3 human prostate cancer xenografted mice; type: in vivo; conditions: 25 mg/kg/dose i.v. q3d×4 (G7)
# Description: (§1) The in vivo efficacy of nanoparticles described herein was evaluated in human prostate cancer xenografted mice. The 15PC3 human prostate tumors were established in nude mice by subcutaneous injection of 5×10^6 cells/mouse into the right auxiliary flank. When tumors reached the average volume of 100 mm^3, the mice were randomly grouped 5 mice per group. The mice of each group were treated with nanoparticle encapsulating antisense ErbB3 oligonucleotides (Sample NP5) or corresponding naked oligonucleotides (Oligo 2). The nanoparticles were given intravenously (i.v.) at 15 mg/kg/dose, 5 mg/kg/dose, 1 mg/kg/dose, or 0.5 mg/kg/dose at q3d×4 for 12 days. The dosage amount is based on the amount of oligonucleotides in the nanoparticles. The naked oligonucleotides were given intraperitoneally (i.p.) at 30 mg/kg/dose or intravenously at 25 mg/kg/dose or 45 mg/kg/dose at q3d×4 for 12 days. The mice were sacrificed twenty four hours after the final dose. Plasma samples were collected from the mice and stored at −20° C. Tumor and liver samples were also collected from the mice. The samples were analyzed for mRNA KD.
# ErbB3 mRNA [2] = experiment: ErbB3 mRNA KD in tumor of 15PC3 human prostate cancer xenografted mice; type: in vivo; conditions: 45 mg/kg i.v. q3d×4 (G8)
# Description: as §1
substance,measurement,setting,value
"Oligo-2: antisense ErbB3 LNA, 5′-TAGcctgtcacttmCTmC-3′, phosphorothioate linkage; naked oligonucleotide (antisense 5'-TAGcctgtcactt^{m}CT^{m}C-3'; LNA, as printed in the source, key not given here)",ErbB3 mRNA KD activity in liver,ErbB3 mRNA [1],about 87%
same,ErbB3 mRNA expression inhibited in tumor,ErbB3 mRNA [2],about 37%
